Calls of active or inactive are those of the source. Cut-off read from the data, not from the text of the source, for most assays here: actives have a measured EC50 and inactives only a lower limit.
What was measured:
NADPH oxidase 1 = biological target: T1, NADPH oxidase 1 (Homo sapiens, UniProt Q9Y5S8); assay: Luminescence-based cell-based dose response assay to identify inhibitors of NADPH oxidase 1 (NOX1).; type: functional
T1 sequence (Q9Y5S8 whole entry): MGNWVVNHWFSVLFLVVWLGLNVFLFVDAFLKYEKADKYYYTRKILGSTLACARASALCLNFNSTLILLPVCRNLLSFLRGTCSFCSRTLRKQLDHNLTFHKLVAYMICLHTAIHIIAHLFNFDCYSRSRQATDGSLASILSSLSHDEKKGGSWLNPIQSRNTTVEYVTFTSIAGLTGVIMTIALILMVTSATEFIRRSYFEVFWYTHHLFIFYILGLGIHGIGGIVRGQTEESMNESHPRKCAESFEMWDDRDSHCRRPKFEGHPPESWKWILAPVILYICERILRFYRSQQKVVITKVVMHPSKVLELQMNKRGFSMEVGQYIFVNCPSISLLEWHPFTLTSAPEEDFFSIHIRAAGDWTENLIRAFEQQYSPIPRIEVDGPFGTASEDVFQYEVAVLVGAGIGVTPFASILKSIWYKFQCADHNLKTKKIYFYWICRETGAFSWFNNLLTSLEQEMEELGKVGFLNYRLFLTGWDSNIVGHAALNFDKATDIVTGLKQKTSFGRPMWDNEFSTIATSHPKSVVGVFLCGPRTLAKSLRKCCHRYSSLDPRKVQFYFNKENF

Protein RecA = biological target: T2, Protein RecA (Mycobacterium tuberculosis, UniProt P9WHJ3); assay: Fluorescence Cell-Free Homogeneous Dose Retest to Identify Inhibitors of RecA-Intein Splicing Activity. [Related pubchem assays (depositor defined):AID2097, AID2223, AID489010, AID492950]; type: functional
T2 sequence (P9WHJ3 whole entry): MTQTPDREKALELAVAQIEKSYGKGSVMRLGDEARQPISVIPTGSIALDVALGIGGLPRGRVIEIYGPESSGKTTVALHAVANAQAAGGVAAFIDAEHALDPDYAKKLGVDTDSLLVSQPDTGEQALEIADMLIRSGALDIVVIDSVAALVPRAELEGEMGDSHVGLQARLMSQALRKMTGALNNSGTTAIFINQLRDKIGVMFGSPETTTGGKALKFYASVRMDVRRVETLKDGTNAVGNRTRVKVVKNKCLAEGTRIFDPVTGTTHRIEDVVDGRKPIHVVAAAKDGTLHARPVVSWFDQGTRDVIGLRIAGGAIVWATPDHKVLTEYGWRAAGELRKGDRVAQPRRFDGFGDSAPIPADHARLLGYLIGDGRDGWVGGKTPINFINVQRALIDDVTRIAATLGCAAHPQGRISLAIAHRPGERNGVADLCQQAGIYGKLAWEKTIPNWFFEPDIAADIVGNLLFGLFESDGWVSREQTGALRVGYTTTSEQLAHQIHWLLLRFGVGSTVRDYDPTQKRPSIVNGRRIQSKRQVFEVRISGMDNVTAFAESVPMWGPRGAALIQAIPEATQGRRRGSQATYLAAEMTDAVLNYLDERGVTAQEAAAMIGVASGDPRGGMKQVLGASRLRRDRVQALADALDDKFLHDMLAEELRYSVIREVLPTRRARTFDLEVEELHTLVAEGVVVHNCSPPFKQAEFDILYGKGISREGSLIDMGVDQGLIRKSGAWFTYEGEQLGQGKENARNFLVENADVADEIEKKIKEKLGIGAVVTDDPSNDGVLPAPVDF

[1] = inhibitors of firefly luciferase expression or activity, dose response, H4 neuroglioma cells, luminescence (AID 1990); type: functional, cell-based
[2] = Luminescence Cell-Based Dose Response HTS to Identify Inhibitors of 5'UTR Stem-Loop Driven Prion Protein mRNA Translation in H4 Neuroglioblastoma Cells. [Related pubchem assays: 1827 (Project Summary), 1813 (Primary HTS)]; type: functional
[3] = biological target: T3, Replicative DNA helicase DnaB (Mycobacterium tuberculosis, UniProt P9WMR3); assay: DnaB intein splicing inhibitors, dose response, biochemical, cell-free fluorescence (AID 449749); type: functional
T3 sequence (P9WMR3 whole entry): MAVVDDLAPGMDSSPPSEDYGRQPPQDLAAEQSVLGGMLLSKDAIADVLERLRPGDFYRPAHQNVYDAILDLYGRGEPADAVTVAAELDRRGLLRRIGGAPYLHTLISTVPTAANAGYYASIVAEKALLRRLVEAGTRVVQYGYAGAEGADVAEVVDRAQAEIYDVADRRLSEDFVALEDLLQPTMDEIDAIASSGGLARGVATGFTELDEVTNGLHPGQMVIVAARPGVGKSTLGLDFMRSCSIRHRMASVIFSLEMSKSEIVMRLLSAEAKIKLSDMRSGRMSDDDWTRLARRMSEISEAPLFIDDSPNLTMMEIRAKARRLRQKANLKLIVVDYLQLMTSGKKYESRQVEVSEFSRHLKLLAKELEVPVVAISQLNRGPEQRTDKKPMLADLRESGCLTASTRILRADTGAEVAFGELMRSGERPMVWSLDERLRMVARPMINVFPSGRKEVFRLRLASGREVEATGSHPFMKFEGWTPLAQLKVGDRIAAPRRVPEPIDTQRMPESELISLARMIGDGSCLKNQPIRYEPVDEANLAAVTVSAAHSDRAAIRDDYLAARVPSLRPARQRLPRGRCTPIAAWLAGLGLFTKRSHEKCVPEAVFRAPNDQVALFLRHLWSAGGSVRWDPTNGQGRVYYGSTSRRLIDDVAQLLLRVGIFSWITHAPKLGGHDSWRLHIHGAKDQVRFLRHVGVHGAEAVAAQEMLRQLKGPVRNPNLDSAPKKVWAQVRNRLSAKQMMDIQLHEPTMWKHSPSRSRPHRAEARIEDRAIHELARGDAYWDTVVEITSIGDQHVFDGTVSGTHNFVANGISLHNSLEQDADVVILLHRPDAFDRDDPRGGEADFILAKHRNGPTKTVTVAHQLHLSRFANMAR

[4] = inhibitors of SNCA 5'UTR-driven reporter translation, confirmation, H4 neuroglioma cells, luminescence (AID 1988); type: functional, cell-based
[5] = Luminescence-based dose response cell-based high throughput screening assay for cytotoxic compounds using the IEC-6 intestinal epithelial cell line. [Related pubchem assays: 1858 (Summary AID.), 1825 (Counterscreen.), 1907 (Confirmation screen.)]; type: functional
[6] = biological target: T4, Heat shock factor protein 1 (Mus musculus, UniProt P38532); assay: inhibition of MG132-induced HSE-luciferase signal, confirmation, cell-based, NIH3T3, luminescence, dose retest (AID 2382); type: functional;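 note: NIH3T3 fibroblasts with HSF1-driven luciferase reporter stressed by proteasome inhibitor MG132; luminescence from HSF1-driven luciferase expression after 8 hours of MG132 stress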
T4 sequence (P38532 whole entry): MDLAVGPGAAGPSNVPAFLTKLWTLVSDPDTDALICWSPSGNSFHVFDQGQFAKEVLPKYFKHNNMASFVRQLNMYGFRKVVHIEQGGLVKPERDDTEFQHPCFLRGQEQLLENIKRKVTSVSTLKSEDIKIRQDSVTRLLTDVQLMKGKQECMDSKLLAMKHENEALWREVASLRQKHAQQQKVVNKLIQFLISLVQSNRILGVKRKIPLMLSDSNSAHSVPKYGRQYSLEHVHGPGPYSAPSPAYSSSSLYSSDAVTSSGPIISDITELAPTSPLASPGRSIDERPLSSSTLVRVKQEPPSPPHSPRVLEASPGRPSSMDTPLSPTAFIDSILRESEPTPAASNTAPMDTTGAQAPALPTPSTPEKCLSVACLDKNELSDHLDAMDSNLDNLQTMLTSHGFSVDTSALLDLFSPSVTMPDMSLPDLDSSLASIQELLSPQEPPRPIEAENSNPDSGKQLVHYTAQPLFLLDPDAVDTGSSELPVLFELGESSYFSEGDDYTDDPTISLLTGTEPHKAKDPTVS

Estrogen receptor = biological target: T5, Estrogen receptor (Homo sapiens, UniProt P03372); assay: potentiators of ERα–SRC-1 coactivator binding, dose response, biochemical, TR-FRET, ERα LBD (AID 737)
T5 sequence (P03372 whole entry): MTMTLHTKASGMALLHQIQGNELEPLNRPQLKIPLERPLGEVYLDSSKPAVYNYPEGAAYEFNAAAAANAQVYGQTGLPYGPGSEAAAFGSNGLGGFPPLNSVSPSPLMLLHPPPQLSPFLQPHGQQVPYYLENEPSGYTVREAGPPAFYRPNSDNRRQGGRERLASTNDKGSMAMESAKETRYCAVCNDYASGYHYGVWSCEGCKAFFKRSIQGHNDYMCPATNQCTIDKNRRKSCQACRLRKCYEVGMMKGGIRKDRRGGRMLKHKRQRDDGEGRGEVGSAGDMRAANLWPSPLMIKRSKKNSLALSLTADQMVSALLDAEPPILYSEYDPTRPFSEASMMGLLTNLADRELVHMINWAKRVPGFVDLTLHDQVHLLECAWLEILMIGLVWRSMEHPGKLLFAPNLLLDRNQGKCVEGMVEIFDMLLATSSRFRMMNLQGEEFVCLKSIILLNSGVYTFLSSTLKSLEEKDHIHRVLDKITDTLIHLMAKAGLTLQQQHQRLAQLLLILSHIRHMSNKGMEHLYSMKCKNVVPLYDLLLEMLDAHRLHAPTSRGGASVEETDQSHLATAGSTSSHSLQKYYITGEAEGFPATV

CC(=NNc1ccc(C(=O)O)cc1)c1ccc2c(c1)Nc1ccccc1S2
active: IC50 (NADPH oxidase 1) 53 nM

O=C1C=C(NCCN2CCOCC2)C(=O)c2cnccc21
active: EC50 (Protein RecA) 536 nM | EC50 [1] 1990 nM | EC50 [2] 6810 nM | AC50 [3] 979 nM | EC50 [4] 1880 nM | IC50 [5] 512 nM | EC50 [6] 10400 nM

Cc1cc2oc(=O)cc(COC(=O)c3[nH]nc4ccccc34)c2cc1C
active: EC50 (Estrogen receptor) 13500 nM
